In US20190046467A1, “COMPOSITIONS AND METHODS FOR INHIBITING BIOFILM-FORMING BACTERIA” (priority 2015, published 2019):

Tests used:
[1] = system: 509=PAO1_Δ(mexAB-oprM)_Δ(mexCD-oprJ)_Δ(mexEF-oprN)_Δ(mexJK)_Δ(mexXY) mutant biofilms; test: MBEC biofilm killing assay (BacTiter-Glo), efflux pump deletion mutant 509; format: cell-based, Pseudomonas aeruginosa; details: triclosan 100 μM alone or with tobramycin 250 μg/mL; 6 hours treatment
Method: (§1) The MBEC™ Assay is a high throughput screening assay that allows testing of the efficacy of antimicrobials against biofilms. The MBEC™ Assay's Biofilm Inoculator (referred above as “the lid”) consists of a plastic lid with 96 pegs and a corresponding base with 96 individual wells. Biofilms are grown on the pegs under batch conditions (no flow of nutrients into or out of an individual well) with gentle mixing. The established biofilm is then transferred to a new 96 well plate for antimicrobial efficacy testing. The assay design allows for the evaluation of different of microorganisms, simultaneous testing of multiple biocides at multiple concentrations with replicate samples, making it an efficient screening tool. (Innovotech website http://www.innovotech.ca/products_mbec.php)) […]
(§2) Two milliliter overnight cultures of Pseudomonas aeruginosa mutants were grown in MHII medium shaking at 220 rpm at 37° C. […] Cell culture was diluted to a 0.001 absorbance at 600 nm in 10% Mueller-Hinton II medium (MHII) and used to inoculate the bottom of MBEC™ assay plates (Innovotech, Edmonton, Canada). […] Following a 5 minute rinse in MHII, lids were exposed to BacTiter-Glo™ (Promega) and luminescence read in a microtiter plate reader (EnVision® Multilabel Plate Reader, Perkin Elmer, Waltham, USA). […]

[2] = system: 509.5=PAO509 expressing triABC mutant biofilms; test: MBEC biofilm killing assay (BacTiter-Glo), mutant 509.5; format: cell-based, Pseudomonas aeruginosa; details: triclosan 100 μM alone or with tobramycin 250 μg/mL; 6 hours treatment
Method: as §1, §2

[3] = system: Pseudomonas aeruginosa PAO1 fabI mutant biofilms; test: MBEC biofilm killing assay (BacTiter-Glo), fabI mutants; format: cell-based; details: triclosan 100 μM alone; 6 hours treatment
Method: as §1
as §2, with “aeruginosa fabI” for “aeruginosa”

## Oc1cc(Cl)ccc1Oc1ccc(Cl)cc1Cl [triclosan, Triclosan]
[1]
  susceptibility of 509 mutant biofilms: susceptible
[2]
  percentage of 509.5 mutant biofilms killed: around 50%
[3]
  susceptibility of fabI mutant biofilms: triclosan resistance
